Results on one compound are retold here after patent publication US20260151376A1, “COMBINATION THERAPY FOR THE TREATMENT OF CANCER” (INSTITUT NATIONAL DE LA SANTÉ ET DE LA RECHERCHE MÉDICALE, priority 2022, published 2026).

The test system of experiment [1] is CT26 tumors. The experiment in a line: CT26 allografts experiment, HA15 and anti-PD1 (Example 1). It is filed as in vivo. Conditions: single treatment; CT26 allograft in BALB/c mice; HA15 0.7 mg/mouse/day IP; anti-PD1 4 injections of 0.125 mg/mouse. The protocol:
FIG. 1: CT26 cells (5.104) are injected subcutaneously in Balb/C mice. As soon as the tumors reach 50 mm^3, mice are randomly distributed into different experimental groups and treated daily (intraperitoneal) with Vehicle or HA15 (35 mg/kg) and twice a week during two weeks with anti-PD1 (6.25 mg/kg) or PBS. A: Individual tumor growth curves. B: Survival curves. Mice are euthanized when their tumor reach 800 mm^3. A log-rang (Mantel Cox) test was performed to compare statistically the survival in the different experimental groups. Ns=non-significant, *: p≤0.05, **: p≤0.01, ***: p≤0.001.
CT26 Allografts Experiment Female BALB/cOlaHsd mice were obtained at 5 weeks of age from Envigo Laboratory. One week later, these mice were inoculated subcutaneously with CT26 cells (5×10^5 cells/mouse). As soon as its tumor reach 50 mm^3, each mouse was allocated in the different experimental group following a randomization table created with the “Graphpad Quickcalcs” tool (7 mice/group). […] Tumor volumes were determined using the equation Volume=(Length×(Width)^2)/2. […]

Another experiment has as its system CHOP. The experiment is described as follows: Intra-tumoral proteins analysis by western blot: CHOP. It is filed as in vivo, mice. (A western blot detects proteins with antibodies after separation by electrophoresis.)
Experiment [2] concerns CT26 tumors. The experiment is described as follows: CT26 tumor model, oral HA15 and anti-PDL1 (Example 2). The format is in vivo, mice. As to the method: Mice: A total of 60 female BALB/C mice aged 5 weeks and weighted between 15-19 g, were ordered from Envigo. These had one week of acclimatation in C3M animal facility. Animals were housed in IVC cages (5 per cage) with individual mice identified by ear tag. All animals were allowed free access to a standard certified commercial diet and sanitised water during the study. The holding room was maintained under standard conditions: 18-24° C., 55-70% humidity and a 12h light/dark cycle. One week before dosing start, 2 animals died while blood sampling.
58 Mice were randomly assigned into the following treatment groups:
Cells: CT26 cell lines were thawed 2 weeks before mice arrival. These were cultured in RPMI medium supplemented with 10% FBS, 1% Penicillin/streptomycin and 2% sodium pyruvate. Cells were expanded 48 hrs prior to the subcutaneous injection in 5×T175 flasks at concentration of 0.8×10^6 cells. This concentration allows cells to be 70-80% confluency at the day of the injection. Briefly, cells were washed with PBS, detached from the flasks using 3 ml of trypsin, collected with RPMI medium and centrifuged at 300 g for 5 min. These were then resuspended in PBS, counted and 0.5×10^6 cells/mouse ([…] in total for 80 mice) were taken and re-centrifuged to be resuspended in 100 μl/mouse of PBS ready to be subcutaneously injected (8 ml in total for 80 mice). […]

The subject of a further experiment is IFNγ. The experiment in a line: Intra-tumoral proteins analysis by western blot and ELISA: IFNγ. It is filed as in vivo, mice. The protocol:
FIG. 2: HA15 induces in vivo the expression of CHOP and IFNg in mice tumors: tumors were harvested from the mice after HA15 treatment and crushed into lysis buffer to get protein lysates. (A). Tumor lysates were analyzed by western blotting with CHOP, IFNγ and HSP90 antibodies. Densitometric analyses were then performed on the radiogram presented here thanks to the ImageJ (Fiji) program. The signal intensity of the target protein is weighted by that of the HSP90 control. (B) The intra-tumoral […] was dosed in the lysates by a Mouse IFN-g ELISA kit. Mann-Whitney test was performed to compare statistically the protein expressions in the two different groups.
Pieces of tumor were crushed thanks to the “Precellys 24 Tissue Homogenizer” into CK Mix Tubes (#P000918-LYSK0, Bertin Technologies) in presence of protein lysis buffer containing 50 mmol/l Tris-HCl (pH 7.5), 15 mmol/l, NaCl, 1% Triton X-100, and 1× protease and phosphatase inhibitors. Tumor lysates were then centrifuged to remove cells debris.
For western Blot, tumor lysates are prepared in Laemmli buffer. Briefly, tumor lysates (30 μg) were separated by SDS-PAGE, transferred onto a polyvinylidene fluoride membrane (Millipore), and then exposed to the appropriate antibodies. The antibody directed against IFN-gamma was purchased from Abcam (ab133566). Proteins were visualized with the ECL System from Amersham. […]

[3] abbreviates: liver, after HA15 treatment (data not shown).

As to `CC(=O)Nc1nc(-c2cccc(NS(=O)(=O)c3cccc4c(N(C)C)cccc34)c2)cs1` [HA15], the complete response with CT26 tumors [1] came out at 14%. The CHOP expression entry with CHOP (CT26 tumors harvested after HA15 treatment, western blot) was “induces”; in the experiment with CHOP (setting [3]), “no variation”. For the same compound, the tumor volume entry in the experiment on CT26 tumors [2] (after 13 days of daily oral administration, statistically significant compared with vehicle group) is on record as “decreased”. Further, in the experiment on CT26 tumors [2] (after mice termination at day 13, confirms the reduction in tumor growth), the tumor weight entry is reported as “confirmed”. Moreover, the IFNγ expression entry with IFNγ (CT26 tumors harvested after HA15 treatment, western blot and ELISA) was “induces”; in the experiment on IFNγ (setting [3]) it was “no variation”.
